Measured values taken from patent US8461117B2, “Chemical linkers and cleavable substrates and conjugates thereof” (Medarex, Inc., priority 2006, dated 2013).

Columns and labels:
[1] = tested on: 786-O; experiment: Second in vivo study: 786-O xenografts, cytotoxins (Compounds A, F, H-J) conjugated to anti-CD70 HuMAb 2H5; parameters: species or system CB17.SCID mice; settings: 786-O xenograft, tumors averaging 200 mm^3, single IP dose Day 0, 0.005-0.03 Toxin μmole, conjugated to CD70.1
Description: (§1) 786-O (ATCC Accession No. CRL-1932) cells were expanded in vitro using standard laboratory procedures. Male CB17.SCID mice (Taconic, Hudson, N.Y.) between 6-8 weeks of age were implanted subcutaneously in the right flank with 2.5 million 786-O in 0.2 ml of PBS/Matrigel (1:1) per mouse. Mice were weighed and measured for tumors three dimensionally using an electronic caliper twice weekly after implantation. Tumor volumes were calculated as height×width×length. Mice with tumors averaging 200 mm^3 were randomized into treatment groups. The mice were dosed intraperitoneally with PBS vehicle, cytotoxin-conjugated isotype control antibody or cytotoxin-conjugated anti-CD70 HuMAb 2H5 on Day 0. Each group contained 8 mice.

[2] = tested on: 786-O; experiment: First in vivo study: 786-O xenografts, cytotoxins (Compounds A-G) conjugated to anti-CD70 HuMAb 2H5; parameters: species or system CB17.SCID mice; settings: 786-O xenograft, tumors averaging 200 mm^3, single IP dose Day 0, 0.1 (some also 0.01) Toxin μmole, conjugated to CD70.1
Description: as §1, with “as height x width x length.” for “as height×width×length.”, “contained 7” for “contained 8”

[3] = cited from earlier work

Structure (SMILES)	Efficacy, descending order (mean/median tumor volume versus days past dosing, FIGS. 4-5) [1]	further results
CC(C)[C@H](NCCNC(=O)CCCN1C(=O)C=CC1=O)C(=O)N[C@@H](CCCNC(N)=O)C(=O)Nc1ccc(C(=O)Nc2ccc3[nH]c(C(=O)N4C[C@@H](CCl)c5c4cc(OC(=O)N4CCN(C)CC4)c4ccccc54)cc3c2)cc1 [Compound J]	Compound J/Compound C>Compound H>Compound G/Compound I>Naked CD70.1	
CC(C)[C@H](NCCNC(=O)CCCN1C(=O)C=CC1=O)C(=O)N[C@@H](CCCNC(N)=O)C(=O)Nc1ccc(C(=O)Nc2ccc3[nH]c(C(=O)N4C[C@@H](CBr)c5c4cc(OC(=O)N4CCN(C)CC4)c4ccccc54)cc3c2)cc1 [Compound H]	Compound J/Compound C>Compound H>Compound G/Compound I>Naked CD70.1	
CC(C)[C@H](NC(=O)CCOCCOCCOCCOCCNC(=O)CCN1C(=O)C=CC1=O)C(=O)N[C@@H](CCCNC(N)=O)C(=O)N1CCc2c1ccc1[nH]c(C(=O)N3C[C@@H](CBr)c4c3cc(OC(=O)N3CCN(C)CC3)c3ccccc43)cc21 [Compound C]	Compound J/Compound C>Compound H>Compound G/Compound I>Naked CD70.1	
CC(C)[C@H](NC(=O)CCOCCOCCOCCOCCNC(=O)CCN1C(=O)C=CC1=O)C(=O)N[C@@H](CCCNC(N)=O)C(=O)N1CCc2c1ccc1[nH]c(C(=O)N3C[C@@H](CBr)c4c3cc(OC(=O)N3CCN(C)CC3)c3ccccc43)cc21 [Compound D]		Efficacy, descending order (mean/median tumor volume versus days past dosing, FIGS. 1-2) [2]: Compound D>Compound A>Compound F>Compound B>Compound C>Compound E>Naked CD70.1/Compound G
COc1c(O)c2c(c3cc(C(=O)N4CCc5c4c(O)c(OC)c4[nH]c(C(=O)N6CC7CC78C6=CC(=O)c6[nH]cc(C)c68)cc54)[nH]c13)CCN2C(N)=O (stereo not drawn) [CC-1065]		Antitumor and antimicrobial activity ([3]; both in vitro and in experimental animals (Li et al. 1982)): potent antitumor and antimicrobial activity; Toxicity in experimental animals ([3]; experimental animals): delayed death
